One compound from US20230097866A1, “BACTERIAL TOPOISOMERASE INHIBITORS DERIVED FROM ISOMANNIDE” (Ohio State Innovation Foundation, priority 2020, published 2023) can be followed below.

One data set deals with S. aureus ATCC 29213. Nature of the data set: MIC, CLSI broth microdilution, S. aureus ATCC 29213. In kind it is cell-based. The settings on record: Staphylococcus aureus, ATCC29213. In general terms: Dilution methods test growth across graded concentrations, often in twofold steps.
Data set [1] relates to Fluoroquinolone-resistant S. aureus (11 strains). Nature of the data set: MIC90, panel of fluoroquinolone-resistant MRSA isolates. The class given is cell-based, Staphylococcus aureus.
The next data set is described as follows: in vitro. The class given is in vitro ADME. The settings on record: pH 7.4, 10 μM, equilibrium dialysis. The procedure: In this assay an equilibrium dialysis technique was used to separate unbound test compound from compound bound to proteins. The plasma was spiked with the test compound at 10 μM with a final DMSO concentration of 1%. The dialysate compartment was loaded with phosphate buffered saline (PBS, pH 7.4) and the sample side was loaded with equal volume of the spiked plasma, After incubation at 37° C. for 4 hours, samples were removed from each plasma and buffer chamber; plasma protein was removed by treatment with acetonitrile. Recovered samples were analyzed using LC-MS.

Values after ≈ are worked out from the molar mass of the structure shown. Where two headings read alike, the source gives them in different places.

A word on the MIC: it is the lowest concentration found to suppress growth. As usually defined, the MIC90 is an inhibitory concentration at the 90% level, which refers to growth in some studies and to a panel of isolates in others. Broadly, the fraction unbound is the share of the substance not bound to proteins or other matrix. As for `COc1ccc2ncc(F)c(CC[C@@]3(O)CO[C@@H]4[C@@H](NCc5cc6c(cn5)OCCO6)CO[C@@H]43)c2n1` [Compound 6, (3R, 3aS,6S,6aR)-6-(((2,3-dihydro-[1,4]dioxino[2,36-c]pyridin-7-yl)methyl)amnino)-3-(2-(3-fluoro-6-methoxy-1,5-naphthyridin-4-yl)ethyl)hexahydrofuro[3,2-b]furan-3-ol], the MIC with S. aureus ATCC 29213 (CLSI broth microdilution, triplicate, read-out: MIC ATCC 29213) is 1 to 4 µg/mL; with S. aureus ATCC 29213 (same MIC expressed in μM, read-out: MIC for S. aureus ATCC 29213), 2 to 8 µM. In data set [1] (Staphylococcus aureus, Cmpd. 6, MIC90), this compound showed an MIC90 of 2 µg/mL (≈ 4.01 µM). The “MIC90 better than that of ciprofloxacin” value in data set [1] (panel of fluoroquinolone-resistant MRSA isolates) was determined as 16 fold. Also, the figures for the fraction unbound in the data set “in vitro” (human plasma) and in the data set “in vitro” (mouse plasma) were 0.138 and 0.047, respectively.
